Assay results reported in ChEMBL document CHEMBL5241085, “Pyrazolotriazines: Biological activities, synthetic strategies and recent developments” (Eur J Med Chem, 2021).
≈ marks a conversion by molar mass, not a printed value.

How the values were obtained:
A549 [1] = assay: Antiproliferative activity against human A549 cells; type: functional, cell-based
Entamoeba histolytica = assay: Antiparasitic activity against Entamoeba histolytica HM1:1MSS assessed as parasitic growth inhibition by microdilution method; type: functional, organism-based
[2] = Inhibition of urease (unknown origin) measured after 20 mins
[3] = biological target: T1, Tyrosinase (Homo sapiens) (UniProt P14679); assay: Inhibition of tyrosinase (unknown origin) relative to control; settings: concentration not given here
T1 sequence (whole entry): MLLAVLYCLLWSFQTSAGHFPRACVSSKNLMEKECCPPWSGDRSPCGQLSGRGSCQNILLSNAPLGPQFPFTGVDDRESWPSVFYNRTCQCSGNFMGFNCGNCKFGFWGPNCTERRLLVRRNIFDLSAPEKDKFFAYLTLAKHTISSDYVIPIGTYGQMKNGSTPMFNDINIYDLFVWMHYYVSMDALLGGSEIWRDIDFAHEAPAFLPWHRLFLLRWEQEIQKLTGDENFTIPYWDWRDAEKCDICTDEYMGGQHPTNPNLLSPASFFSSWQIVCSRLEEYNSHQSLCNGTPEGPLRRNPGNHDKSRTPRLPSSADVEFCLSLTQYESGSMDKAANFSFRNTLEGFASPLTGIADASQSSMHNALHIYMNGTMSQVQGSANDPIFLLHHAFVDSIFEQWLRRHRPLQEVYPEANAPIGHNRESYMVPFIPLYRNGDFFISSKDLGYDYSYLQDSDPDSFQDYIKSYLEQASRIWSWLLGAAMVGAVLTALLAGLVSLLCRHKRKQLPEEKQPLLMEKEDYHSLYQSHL

[4] = biological target: T1, Tyrosinase (Homo sapiens); assay: Inhibition of tyrosinase (unknown origin) assessed as enzyme residual activity at 0.07 mg/ml relative to control; values are per cent of control
Dipeptidyl peptidase 4 [5] = biological target: T2, Dipeptidyl peptidase 4 (Homo sapiens, UniProt P27487); assay: Inhibition of human DPP4
[6] = biological target: T3, Purine nucleoside phosphorylase (Homo sapiens, UniProt P00491); assay: Inhibition of PNP (unknown origin) expressed in Escherichia coli
T3 sequence (P00491 whole entry): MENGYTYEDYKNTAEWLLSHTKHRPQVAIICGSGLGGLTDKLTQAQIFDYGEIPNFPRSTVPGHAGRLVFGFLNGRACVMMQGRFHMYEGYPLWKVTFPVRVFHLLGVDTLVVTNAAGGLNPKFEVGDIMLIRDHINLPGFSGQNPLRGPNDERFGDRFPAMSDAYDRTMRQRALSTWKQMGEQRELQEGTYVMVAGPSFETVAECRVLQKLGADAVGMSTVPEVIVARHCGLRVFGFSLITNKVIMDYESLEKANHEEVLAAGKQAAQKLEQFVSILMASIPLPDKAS

Dipeptidyl peptidase 4 [7] = biological target: T2, Dipeptidyl peptidase 4; assay: Inhibition of DPP4 (unknown origin)
[8] = biological target: GABA-A receptor; anion channel; assay: In vivo receptor occupancy at GABAA receptor in po dosed Sprague-Dawley rat assessed as plasma concentration causing 50% reduction at 0.39 mg/kg measured after 48 hrs by LC/MS method; type: functional, organism-based
[9] = Half life in human; type: ADME
[10] = Half life in rhesus monkey at 1 mg/kg, iv; type: ADME, organism-based, Macaca mulatta; settings: in vivo
[11] = Plasma protein binding in rhesus monkey; type: ADME, cell-free; settings: Macaca mulatta
[12] = Half life in dog at 1 mg/kg; type: ADME, organism-based, Canis lupus familiaris; settings: in vivo
[13] = Half life in Sprague-Dawley rat at 1 mg/kg; type: ADME, organism-based; settings: in vivo
[14] = biological target: T4, Amine oxidase [flavin-containing] B (Homo sapiens, UniProt P27338); assay: Inhibition of MAO-B (unknown origin)
T4 sequence (P27338 whole entry): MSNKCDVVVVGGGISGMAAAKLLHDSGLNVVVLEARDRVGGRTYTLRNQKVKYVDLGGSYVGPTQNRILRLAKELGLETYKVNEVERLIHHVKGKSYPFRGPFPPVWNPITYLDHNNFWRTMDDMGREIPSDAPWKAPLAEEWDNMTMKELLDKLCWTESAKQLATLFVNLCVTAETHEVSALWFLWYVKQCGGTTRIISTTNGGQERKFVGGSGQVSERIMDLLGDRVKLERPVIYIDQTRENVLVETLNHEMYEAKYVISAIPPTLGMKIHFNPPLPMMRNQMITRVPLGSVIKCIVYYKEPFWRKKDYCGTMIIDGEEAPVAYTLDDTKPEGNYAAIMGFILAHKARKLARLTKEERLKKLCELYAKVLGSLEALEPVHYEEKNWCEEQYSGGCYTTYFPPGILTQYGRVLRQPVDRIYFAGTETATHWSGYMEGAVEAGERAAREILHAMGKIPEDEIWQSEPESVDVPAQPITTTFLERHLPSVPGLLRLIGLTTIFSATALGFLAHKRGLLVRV

[15] = Oral bioavailability in rhesus monkey at 21 mg/kg; type: ADME, organism-based, Macaca mulatta; settings: in vivo
[16] = biological target: T5, Calcitonin gene-related peptide 1 (Homo sapiens, UniProt P06881); assay: Inhibition of CGRP (unknown origin)
T5 sequence (P06881 whole entry): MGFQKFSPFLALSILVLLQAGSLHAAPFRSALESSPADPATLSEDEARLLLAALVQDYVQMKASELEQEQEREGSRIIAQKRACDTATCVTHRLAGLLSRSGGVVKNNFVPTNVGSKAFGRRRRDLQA

Tyrosinase = biological target: T6, Tyrosinase (Homo sapiens, UniProt P14679); assay: Inhibition of tyrosinase (unknown origin) incubated for 20 mins
T6 sequence (P14679 whole entry): T1 sequence (whole entry)

A549 [17] = assay: Cytotoxicity against human A549 cells assessed as reduction in cell viability at 100 uM by MTT assay; type: functional, cell-based
MDA-MB-231 = assay: Cytotoxicity against human MDA-MB-231 cells assessed as reduction in cell viability at 100 uM by MTT assay; type: functional, cell-based
[18] = biological target: T7, Cyclin-dependent kinase 2 (Homo sapiens, UniProt P24941); assay: Inhibition of CDK2 (unknown origin); settings: concentration not given here
[19] = Antiproliferative activity against human NCI cells assessed as reduction in cell viability at 100 uM by MTT assay; type: functional; settings: read-out: GI
[20] = biological target: T7, Cyclin-dependent kinase 2; assay: Inhibition of human CDK2 at 10 uM
[21] = biological target: T8, Glucose-dependent insulinotropic receptor (Homo sapiens, UniProt Q8TDV5); assay: Inhibition of GPR119 (unknown origin) at 10 uM
T8 sequence (Q8TDV5 whole entry): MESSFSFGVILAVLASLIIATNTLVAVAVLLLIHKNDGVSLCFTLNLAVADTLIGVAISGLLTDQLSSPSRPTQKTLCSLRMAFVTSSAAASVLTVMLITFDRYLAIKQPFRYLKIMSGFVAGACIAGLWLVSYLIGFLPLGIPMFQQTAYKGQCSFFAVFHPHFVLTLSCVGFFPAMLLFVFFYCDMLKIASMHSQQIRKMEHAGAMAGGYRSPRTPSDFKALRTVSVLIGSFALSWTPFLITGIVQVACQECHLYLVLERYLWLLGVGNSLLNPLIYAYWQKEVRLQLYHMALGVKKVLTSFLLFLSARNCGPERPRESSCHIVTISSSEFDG

T2 sequence (P27487 whole entry): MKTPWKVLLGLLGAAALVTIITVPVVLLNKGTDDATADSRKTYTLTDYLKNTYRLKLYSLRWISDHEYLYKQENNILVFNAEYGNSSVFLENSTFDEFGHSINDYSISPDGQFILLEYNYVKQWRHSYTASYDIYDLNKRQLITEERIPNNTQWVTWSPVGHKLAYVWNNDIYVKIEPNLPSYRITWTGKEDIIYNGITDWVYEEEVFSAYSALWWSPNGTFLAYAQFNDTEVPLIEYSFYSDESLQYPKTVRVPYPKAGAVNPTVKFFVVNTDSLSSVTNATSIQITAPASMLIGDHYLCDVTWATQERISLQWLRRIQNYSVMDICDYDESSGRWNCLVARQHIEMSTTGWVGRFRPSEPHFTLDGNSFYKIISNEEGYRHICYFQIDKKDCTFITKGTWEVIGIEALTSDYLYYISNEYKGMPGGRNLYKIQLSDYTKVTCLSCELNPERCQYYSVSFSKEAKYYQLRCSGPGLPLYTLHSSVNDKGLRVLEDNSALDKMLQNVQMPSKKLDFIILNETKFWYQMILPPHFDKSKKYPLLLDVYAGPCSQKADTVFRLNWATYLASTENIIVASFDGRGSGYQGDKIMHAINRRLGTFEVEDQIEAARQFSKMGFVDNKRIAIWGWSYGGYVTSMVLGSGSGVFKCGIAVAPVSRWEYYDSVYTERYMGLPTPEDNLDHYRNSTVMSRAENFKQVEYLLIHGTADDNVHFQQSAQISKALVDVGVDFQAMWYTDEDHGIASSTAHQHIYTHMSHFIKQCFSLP

SMILES: O=c1cc2nc(-c3ccccc3)nc(SCCc3ccccc3)n2[nH]1
- IC50 (A549 [1]): 53 µM

SMILES: Cc1nnc2n(NC(=S)NC3CCCCC3)c(C)nnc1-2
- IC50 (Entamoeba histolytica): 0.81 µM

SMILES: NC(N)=S [THIOUREA]
- IC50 [2]: 20.9 µM

SMILES: Cc1ncc([N+](=O)[O-])n1CCO [METRONIDAZOLE]
- IC50 (Entamoeba histolytica): 1.81 µM

SMILES: CCOc1ccc(S(=O)(=O)NCCN)cc1-c1nnc2c(n1)c(C)nn2C
- inhibition [3]: 3.7%
- residual activity [4]: 96.3%

SMILES: N#Cc1cnn2c(=O)c([N+](=O)[O-])n[nH]c12
- IC50 (Dipeptidyl peptidase 4 [5]): 61.1 µM

SMILES: CSC1=NNC2NN=C(C)C2=N1 (centres undefined)
- IC50 [6]: 40 µM

SMILES: CCOC(=O)c1n[nH]c2c(C(=O)OCC)cnn2c1=O
- IC50 (Dipeptidyl peptidase 4 [7]): 54 µM

SMILES: Cc1cc(-c2nncc3c(C(C)(C)C)c(OCc4ncnn4C)nn23)no1
- EC50 [8]: 0.0407 µM
- half-life [9]: 210 min
- half-life [10]: 18 min
- EC50 [11]: 0.021 µg/mL (≈ 0.057 µM)
- half-life [12]: 30 min
- half-life [13]: 30 min

SMILES: CCOC(=O)c1cnn2c(=O)c([N+](=O)[O-])n[nH]c12
- IC50 (Dipeptidyl peptidase 4 [5]): 620 µM

SMILES: CCOc1ccc(S(=O)(=O)N[C@H](CO)CC(C)C)cc1-c1nnc2c(n1)c(C)nn2C
- IC50 [2]: 0.042 µM

SMILES: CCSc1nc(-c2ccc(C)cc2)n2nc(C)cc2n1
- IC50 [14]: 24.5 µM

SMILES: Cc1nnc2n(NC(=S)NC3C4CC5CC(C4)CC3C5)c(C)nnc1-2 (centres undefined)
- IC50 (Entamoeba histolytica): 0.54 µM

SMILES: CCOC(=O)c1cnn2c(=O)c(C(=O)NC(C)(C)C)n[nH]c12
- IC50 (Dipeptidyl peptidase 4 [7]): 48.1 µM

SMILES: N/C(=N\O)c1cnn2c(=O)c([N+](=O)[O-])n[nH]c12
- IC50 (Dipeptidyl peptidase 4 [5]): 63.6 µM

SMILES: COCC(COC)Nc1nc(C)nc2c(-c3ccc(Cl)cc3Cl)c(C)nn12
- bioavailability [15]: 50%

SMILES: Cc1ccc(Nc2nc(N)nc3cc(-c4ccccc4)nn23)cc1
- IC50 [16]: 7.6 µM

SMILES: CCOc1ccc(S(=O)(=O)N[C@H](C)CO)cc1-c1nnc2c(n1)c(C)nn2C
- IC50 (Tyrosinase): 30.8 µM

SMILES: CCOc1ccc(S(=O)(=O)N[C@@H](C)CO)cc1-c1nnc2c(n1)c(C)nn2C
- IC50 [2]: 0.037 µM

SMILES: O=c1[nH]c(=O)n([C@H]2C[C@H](O)[C@@H](CO)O2)cc1F [FLOXURIDINE]
- IC50 (A549 [17]): 5.8 µM
- IC50 (MDA-MB-231): 38 µM

SMILES: CCOc1ccc(S(=O)(=O)N[C@@H](CO)CC(C)C)cc1-c1nnc2c(n1)c(C)nn2C
- IC50 (Tyrosinase): 27.9 µM

SMILES: CN(C)CCCNc1nc(N)nc2cc(-c3ccccc3)nn12
- IC50 [16]: 52.2 µM

SMILES: CCOC(=O)c1cnn2c(-c3ccc(Cl)cc3)nc(NCc3ccccc3)nc12
- inhibition [18]: 82.4%
- inhibition of growth at 100 µM [19]: 41.8%
- IC50 [20]: 1.85 µM

SMILES: CCOc1ccc(S(=O)(=O)NC[C@@H](C)O)cc1-c1nnc2c(n1)c(C)nn2C
- IC50 [2]: 0.044 µM

SMILES: Cc1nnc2n(NC(=S)NC3CCCCCCC3)c(C)nnc1-2
- IC50 (Entamoeba histolytica): 0.81 µM

SMILES: O=C(NCCc1ccccc1)c1cnn2c(-c3ccc(Cl)cc3)nc(NCCc3ccccc3)nc12
- inhibition [18]: 82%
- inhibition of growth at 100 µM [19]: 33.3%
- IC50 [20]: 2.09 µM

SMILES: Nc1nc(Nc2ccc(F)cc2)n2nc(-c3ccccc3)cc2n1
- IC50 [21]: 18.4 µM
- IC50 [16]: 51.2 µM
